Test [1] has as its target T1, AR wt (Homo sapiens, UniProt P10275).
T1 sequence (P10275 1-920): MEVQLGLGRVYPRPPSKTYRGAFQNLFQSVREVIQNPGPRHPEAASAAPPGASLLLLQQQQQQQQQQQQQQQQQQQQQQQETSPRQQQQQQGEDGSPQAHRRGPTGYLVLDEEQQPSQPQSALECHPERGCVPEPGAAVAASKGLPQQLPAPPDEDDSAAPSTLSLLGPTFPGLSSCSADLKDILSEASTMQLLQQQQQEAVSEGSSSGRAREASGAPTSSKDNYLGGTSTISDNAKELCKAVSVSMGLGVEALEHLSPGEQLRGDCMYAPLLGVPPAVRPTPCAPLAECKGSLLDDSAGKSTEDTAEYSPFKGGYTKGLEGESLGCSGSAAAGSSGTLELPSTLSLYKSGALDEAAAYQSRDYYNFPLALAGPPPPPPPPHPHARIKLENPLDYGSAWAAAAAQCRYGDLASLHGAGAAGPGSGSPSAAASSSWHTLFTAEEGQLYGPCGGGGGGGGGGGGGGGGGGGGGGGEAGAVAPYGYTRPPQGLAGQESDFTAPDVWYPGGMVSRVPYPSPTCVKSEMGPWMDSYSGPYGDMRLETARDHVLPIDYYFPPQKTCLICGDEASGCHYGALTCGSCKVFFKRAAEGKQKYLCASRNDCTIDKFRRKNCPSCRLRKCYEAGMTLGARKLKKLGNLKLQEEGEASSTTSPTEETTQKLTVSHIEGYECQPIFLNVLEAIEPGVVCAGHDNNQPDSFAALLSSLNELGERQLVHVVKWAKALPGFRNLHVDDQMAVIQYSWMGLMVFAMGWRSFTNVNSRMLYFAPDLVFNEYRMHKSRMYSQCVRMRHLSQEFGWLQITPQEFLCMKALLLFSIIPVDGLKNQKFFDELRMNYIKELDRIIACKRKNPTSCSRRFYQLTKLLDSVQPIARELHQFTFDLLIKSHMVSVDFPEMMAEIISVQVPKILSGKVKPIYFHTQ
The experiment in a line: Transcription assay (ARE-luciferase reporter) in CV-1 cells, wild-type AR. The test is classed as cell-based. As to conditions: for Antagonist efficacy (RLU value at IC50), AR wt: in competition with 3 nM DHT, normalized to 10 nM DHT in hAR(wt). Set-up: expressed in transfected cells; host or cells: CV-1. The method, then:
(§1) Twenty-four hours prior to transfection, CV-1 cells were seeded at a density of 45,000 cells per well in 24-well cell culture plates and grown in phenol red free Dulbecco's Modified Eagle Medium (DMEM) supplemented with 10% cosmic calf serum (COS). ARE-luciferase reporter and Renilla-Luc as the internal standard and a prokaryotic expression vector encoding the wild-type androgen receptor or mutant androgen receptor were transfected with Lipofectamine (Invitrogen) following manufacturer's protocol. Five hours after transfection, media was added containing the appropriate concentrations of ligands. The cells were allowed to incubate for 38 hours before harvesting by passive lysis buffer. Cell extracts were immediately assayed using the Dual Luciferase Assay (Promega) with a Perkin-Elmer Microbeta Luminometer. […] Dose-response data was analyzed by nonlinear regression analysis using GraphPad Prism.
In general terms: In a reporter assay the amount or activity of a reporter protein is the signal.

Another test concerns the target T2, AR W741C (Homo sapiens, UniProt P10275, W742C).
T2 sequence (P10275 1-920 W742C): T1 sequence (P10275 1-920) with W742C
The test can be described thus: Transcription assay (ARE-luciferase reporter) in CV-1 cells, AR W741C. Format: cell-based. The arrangement: expressed in transfected cells; host or cells: CV-1. To be noted: for Antagonist efficacy (RLU value at IC50), AR W741C: in competition with 200 nM DHT. The method, then: as §1

In test [2] the target is T1, AR wt. The test can be described thus: Competitive binding assay, [3H]DHT, transfected COS-7 cells, wild-type AR. The arrangement: expressed in transfected cells; host or cells: COS-7. As to conditions: 8 nM [3H]-DHT, read-out: Binding affinity (Ki), AR wt. The method, then:
Twenty-four hours prior to transfection, COS-7 cells were seeded at a density of 70,000 cells per well in 24-well cell culture plates and grown in phenol red free Dulbecco's Modified Eagle Medium (DMEM) supplement with 10% cosmic calf serum (CCS). The cells were transfected with a prokaryotic expression vector encoding the wild-type androgen receptor or mutant androgen receptor using Lipofectamine (Invitrogen) following manufacturer's protocol. […] Cells were washed with PBS and harvested in 2% SDS, 10% glycerol, and 10 mM Tris, pH 6.8, and radioactivity determined by scintillation counting.

In general, IC50 refers to the concentration at which inhibition is half-maximal. Read a low IC50 as higher potency. One may read the Ki as the equilibrium dissociation constant of an inhibitor or competing ligand from its target.

Each structure is given as a SMILES string. Positions count from the first letter of the chain named.

Regarding `CN(C)CCCOc1cccc(Cc2ccccc2S(=O)(=O)CC(C)(O)C(=O)Nc2ccc(C#N)c(C(F)(F)F)c2)c1` (stereo not shown) [PAN22], at AR wt [1], inhibition was half-maximal at 2000 ± 2200 nM (IC50) and the “Antagonist efficacy (RLU value at IC50), AR wt” value (from here on “Antagonist efficacy … AR wt”) is “(50% ± 30%)”. Also, at AR W741C, inhibition was half-maximal at 5.6 ± 0.8 µM (IC50) and the “Antagonist efficacy (RLU value at IC50), AR W741C” value (from here on “Antagonist efficacy … AR W741C”) was “(53% ± 2.1%)”. In addition, on AR wt [2], the Ki came out at 2.3 µM.
On to `CC(O)(CS(=O)(=O)c1ccccc1-c1ccccc1O)C(=O)Nc1ccc(C#N)c(C(F)(F)F)c1` (stereo not shown) [PAN41, N-(4-cyano-3-(trifluoromethyl)phenyl)-2-hydroxy-3-(2′-hydroxybiphenyl-2-ylsulfonyl)-2-methylpropanamide], for which, on AR wt [1], inhibition was half-maximal at 1200 ± 500 nM (IC50) and the “Antagonist efficacy … AR wt” value is “(45% ± 14%)”. On AR W741C, the midpoint of inhibition, the IC50, lay at 8 ± 2.6 µM and the “Antagonist efficacy … AR W741C” value is “(50% ± 1.0%)”.
Regarding `CN(C)CCCOc1cccc(-c2ccccc2S(=O)(=O)CC(C)(O)C(=O)Nc2ccc(C#N)c(C(F)(F)F)c2)c1` (stereo not shown) [PAN52], at AR wt [1], the midpoint of inhibition, the IC50, lay at 3500 ± 2000 nM and the “Antagonist efficacy … AR wt” value is on record as “(49% ± 4.4%)”. Moreover, on AR W741C, half-maximal inhibition (IC50) was put at 5.9 ± 2.5 µM and the “Antagonist efficacy … AR W741C” value is listed as “(50% ± 1.0%)”. The Ki on AR wt [2] is 3 µM.
As to `CN(C)CCCOc1ccc(-c2ccccc2S(=O)(=O)CC(C)(O)C(=O)Nc2ccc(C#N)c(C(F)(F)F)c2)cc1` (stereo not shown) [PAN62], at AR wt [1], the IC50 was determined as 2300 ± 900 nM and the “Antagonist efficacy … AR wt” value is listed as “(51% ± 9.1%)”. Besides, at AR W741C, the IC50 was determined as 15 ± 17 µM and the “Antagonist efficacy … AR W741C” value is “(56% ± 5.7%)”. For the same molecule, the Ki on AR wt [2] was 25 µM.

The values are drawn from patent publication US8450374B2, “Pan-antagonists for the androgen receptor and androgen receptor mutants associated with anti-androgen withdrawal” (priority 2009, dated 2013).
